From PMC11994644, “In vivo quantification of [^11C]BIO-1819578 in non-human primates, a novel radioligand for O-GlcNAcase” (Journal of Cerebral Blood Flow & Metabolism, 2025)
Entries after “also recorded” stand apart in the source; their conditions may differ.

Tests used:
[1] = target: OGA; settings: cited from earlier work
[2] = tested on: O-GlcNAcase (OGA); assay: OGA occupancy after pretreatment with Thiamet-G (revisited Lassen plot); format: in vivo, cynomolgus monkey

Row | occupancy ([2]; Thiamet-G 10 mg/kg i.v. 45 minutes prior to PET, 2TCM, one NHP) [%] | Compound | Kd [1] [nM] | effect of pretreatment on [^11C]BIO-1819578 distribution volume (VT) ([2]; Thiamet-G 10 mg/kg i.v., NHP 3)
1 |  | CC(=O)Nc1ncc(CN2CCC[C@H](N(C)c3ccc(F)cn3)C2)s1 [BIO-1819578] | 2.3 | 
2 | 97.6 | CCN=C1N[C@@H]2[C@@H](O)[C@H](O)[C@@H](CO)O[C@@H]2S1 [Thiamet-G] |  | reduced the distribution volume in all brain regions; also recorded: decreased in all regions
